From ChEMBL document CHEMBL6153137, “Design, Synthesis, and Biological Evaluation of Novel Orally Available Covalent CDK12/13 Dual Inhibitors for the Treatment of Tumors” (J Med Chem, 2025)
Converted amounts (≈) assume the structure as drawn.

Legend:
[1] = target: Cyclin-dependent kinase 13/Cyclin-K (Homo sapiens, UniProt Q14004); assay: Inhibition of CDK13/Cyclin K (unknown origin) using pS7-CTD peptide and ATP as substrate incubated for 120 mins by ADP-Glo reagent based luminescence analysis; type: protein-complex assay
Chain of Cyclin-dependent kinase 13/Cyclin-K (Q14004 whole entry): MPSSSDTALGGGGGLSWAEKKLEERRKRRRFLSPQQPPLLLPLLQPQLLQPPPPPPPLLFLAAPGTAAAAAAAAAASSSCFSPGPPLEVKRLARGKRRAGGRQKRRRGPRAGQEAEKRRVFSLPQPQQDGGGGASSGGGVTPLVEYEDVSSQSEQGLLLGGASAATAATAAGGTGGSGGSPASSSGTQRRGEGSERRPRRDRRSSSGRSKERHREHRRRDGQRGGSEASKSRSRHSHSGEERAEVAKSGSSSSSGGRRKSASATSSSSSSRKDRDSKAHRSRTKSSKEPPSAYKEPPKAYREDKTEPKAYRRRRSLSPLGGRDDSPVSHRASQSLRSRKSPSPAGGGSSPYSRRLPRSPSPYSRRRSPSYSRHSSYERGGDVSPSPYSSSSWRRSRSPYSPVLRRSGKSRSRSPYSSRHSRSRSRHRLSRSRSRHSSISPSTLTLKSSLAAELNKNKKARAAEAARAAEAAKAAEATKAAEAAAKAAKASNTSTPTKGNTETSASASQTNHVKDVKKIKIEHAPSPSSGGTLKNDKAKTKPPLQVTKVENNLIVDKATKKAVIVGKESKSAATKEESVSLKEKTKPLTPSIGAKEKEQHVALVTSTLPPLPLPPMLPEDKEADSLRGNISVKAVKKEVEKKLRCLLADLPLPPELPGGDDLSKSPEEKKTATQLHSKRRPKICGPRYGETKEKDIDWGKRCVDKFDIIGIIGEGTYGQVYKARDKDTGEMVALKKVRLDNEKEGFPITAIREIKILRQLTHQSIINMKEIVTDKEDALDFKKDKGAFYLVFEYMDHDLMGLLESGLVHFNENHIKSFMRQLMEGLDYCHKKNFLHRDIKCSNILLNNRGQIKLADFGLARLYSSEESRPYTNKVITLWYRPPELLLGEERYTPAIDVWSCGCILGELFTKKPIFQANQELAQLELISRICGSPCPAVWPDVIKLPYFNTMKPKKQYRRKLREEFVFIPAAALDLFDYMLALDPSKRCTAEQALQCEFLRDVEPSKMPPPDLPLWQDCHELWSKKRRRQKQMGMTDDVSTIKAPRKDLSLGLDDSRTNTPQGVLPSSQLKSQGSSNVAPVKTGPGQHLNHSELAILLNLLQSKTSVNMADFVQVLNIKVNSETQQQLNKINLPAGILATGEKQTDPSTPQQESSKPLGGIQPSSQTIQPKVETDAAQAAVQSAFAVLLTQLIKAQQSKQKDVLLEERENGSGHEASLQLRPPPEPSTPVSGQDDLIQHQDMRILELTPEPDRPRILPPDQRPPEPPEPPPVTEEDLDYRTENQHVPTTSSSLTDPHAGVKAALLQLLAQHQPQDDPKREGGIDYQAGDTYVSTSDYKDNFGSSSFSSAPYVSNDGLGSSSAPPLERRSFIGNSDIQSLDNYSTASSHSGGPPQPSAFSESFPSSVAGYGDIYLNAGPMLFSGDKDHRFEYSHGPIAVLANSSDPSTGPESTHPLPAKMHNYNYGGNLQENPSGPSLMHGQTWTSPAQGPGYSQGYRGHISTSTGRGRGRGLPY
Chain of Cyclin-dependent kinase 13/Cyclin-K (O75909 whole entry, further chain): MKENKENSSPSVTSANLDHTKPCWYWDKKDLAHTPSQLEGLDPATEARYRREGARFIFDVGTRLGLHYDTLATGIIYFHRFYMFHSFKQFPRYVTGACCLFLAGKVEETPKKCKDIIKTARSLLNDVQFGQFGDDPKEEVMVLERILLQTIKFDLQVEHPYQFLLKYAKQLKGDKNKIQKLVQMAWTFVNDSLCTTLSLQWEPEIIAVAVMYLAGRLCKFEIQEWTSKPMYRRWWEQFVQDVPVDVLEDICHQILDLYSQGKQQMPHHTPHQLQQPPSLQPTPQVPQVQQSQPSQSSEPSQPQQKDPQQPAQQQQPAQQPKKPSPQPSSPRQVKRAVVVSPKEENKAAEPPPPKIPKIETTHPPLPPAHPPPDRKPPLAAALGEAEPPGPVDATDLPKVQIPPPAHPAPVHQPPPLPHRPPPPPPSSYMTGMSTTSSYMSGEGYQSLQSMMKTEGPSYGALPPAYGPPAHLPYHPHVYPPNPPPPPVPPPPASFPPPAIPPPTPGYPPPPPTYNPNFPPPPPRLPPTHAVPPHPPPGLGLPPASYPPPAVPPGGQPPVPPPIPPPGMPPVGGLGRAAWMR

[2] = tested on: SUM149PT; assay: Antiproliferative activity against human SUM149PT cells assessed as inhibition of cell growth incubated for 7 days by CellTiter-Glo reagent based luminescence analysis; type: functional; details: 168 h
[3] = GSH reactivity assessed as half life to adduct formation at 0.1 uM by LC-MS/MS analysis; type: physicochemical
[4] = GSH reactivity assessed as half life to adduct formation at 1 uM by LC-MS/MS analysis; type: physicochemical
[5] = GSH reactivity assessed as half life to adduct formation at 10 uM by LC-MS/MS analysis; type: physicochemical
[6] = Clearance in CD-1 mouse at 1 mg/kg, iv measured for 24 hrs by LC-MS/MS analysis; type: ADME, organism-based; details: in vivo
[7] = Volume of distribution at steady state in CD-1 mouse at 1 mg/kg, iv measured for 24 hrs by LC-MS/MS analysis; type: ADME, organism-based; details: in vivo, read-out: Vdss
[8] = AUC (0 to infinity) in CD-1 mouse at 1 mg/kg, iv by LC-MS/MS analysis; type: ADME, organism-based; details: in vivo
[9] = Half life in CD-1 mouse at 5 mg/kg, po measured for 24 hrs by LC-MS/MS analysis; type: ADME, organism-based; details: in vivo
[10] = Cmax in CD-1 mouse at 5 mg/kg, po measured for 24 hrs by LC-MS/MS analysis; type: ADME, organism-based; details: in vivo
[11] = AUC (0 to infinity) in CD-1 mouse at 5 mg/kg, po by LC-MS/MS analysis; type: ADME, organism-based; details: in vivo
[12] = Oral bioavailability in CD-1 mouse at 5 mg/kg measured for 24 hrs by LC-MS/MS analysis; type: ADME, organism-based; details: in vivo
[13] = Permeability of the compound in human Caco-2 cells at 2 uM incubated for 2 hrs by LC-MS/MS analysis; type: ADME, cell-based; details: read-out: permeability
[14] = target: CDK12/Cyclin K (Homo sapiens, UniProt Q9NYV4); assay: Inhibition of CDK12/Cyclin K (unknown origin) using pS7-CTD peptide and ATP as substrate incubated for 120 mins by ADP-Glo reagent based luminescence analysis; type: protein-complex assay
Chain of CDK12/Cyclin K (O75909 whole entry): as the sequence (O75909 whole entry, further chain) above
Chain of CDK12/Cyclin K (Q9NYV4 whole entry): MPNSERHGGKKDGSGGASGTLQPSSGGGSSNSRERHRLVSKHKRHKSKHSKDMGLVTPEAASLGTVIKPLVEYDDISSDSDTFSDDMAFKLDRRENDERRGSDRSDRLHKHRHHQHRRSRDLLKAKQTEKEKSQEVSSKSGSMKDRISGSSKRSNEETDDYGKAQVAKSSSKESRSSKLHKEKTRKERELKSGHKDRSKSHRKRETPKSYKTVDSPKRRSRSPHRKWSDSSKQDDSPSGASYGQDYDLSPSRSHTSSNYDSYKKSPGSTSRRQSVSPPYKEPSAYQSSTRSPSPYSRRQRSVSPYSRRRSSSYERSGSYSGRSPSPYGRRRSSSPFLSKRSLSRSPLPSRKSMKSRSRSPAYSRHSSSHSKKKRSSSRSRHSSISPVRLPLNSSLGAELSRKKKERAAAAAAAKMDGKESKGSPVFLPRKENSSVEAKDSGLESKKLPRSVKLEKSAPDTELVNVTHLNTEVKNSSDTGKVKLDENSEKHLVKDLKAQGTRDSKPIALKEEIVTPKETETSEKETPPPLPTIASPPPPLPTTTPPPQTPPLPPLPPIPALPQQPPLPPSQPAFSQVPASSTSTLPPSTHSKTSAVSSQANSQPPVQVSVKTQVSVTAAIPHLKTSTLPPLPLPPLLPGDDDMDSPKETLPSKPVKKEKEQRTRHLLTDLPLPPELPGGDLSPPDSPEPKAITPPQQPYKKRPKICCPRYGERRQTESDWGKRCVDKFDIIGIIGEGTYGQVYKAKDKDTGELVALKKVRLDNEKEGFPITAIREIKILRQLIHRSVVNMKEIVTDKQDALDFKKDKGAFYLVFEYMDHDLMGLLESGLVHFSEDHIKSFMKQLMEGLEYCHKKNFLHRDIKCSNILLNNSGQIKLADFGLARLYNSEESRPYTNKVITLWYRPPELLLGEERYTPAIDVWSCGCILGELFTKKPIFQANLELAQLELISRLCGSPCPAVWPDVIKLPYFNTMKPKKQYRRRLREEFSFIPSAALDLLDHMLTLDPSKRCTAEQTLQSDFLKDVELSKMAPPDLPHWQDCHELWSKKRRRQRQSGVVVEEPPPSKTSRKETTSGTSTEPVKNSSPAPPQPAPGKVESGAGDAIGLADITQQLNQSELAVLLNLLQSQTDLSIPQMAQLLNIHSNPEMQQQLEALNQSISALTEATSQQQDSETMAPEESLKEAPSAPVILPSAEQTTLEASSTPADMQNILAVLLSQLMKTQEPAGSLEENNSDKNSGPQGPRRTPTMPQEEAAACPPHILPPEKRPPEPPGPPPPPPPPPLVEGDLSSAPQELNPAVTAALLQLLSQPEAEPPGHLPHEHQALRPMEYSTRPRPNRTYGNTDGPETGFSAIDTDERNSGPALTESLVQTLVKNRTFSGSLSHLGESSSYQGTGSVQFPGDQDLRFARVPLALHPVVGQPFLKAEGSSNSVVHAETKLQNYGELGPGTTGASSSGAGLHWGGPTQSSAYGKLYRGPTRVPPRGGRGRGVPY

[15] = Kinetic solubility of the compound in phosphate buffer at pH 7.4 measured after 24 hrs by HPLC-UV analysis; type: physicochemical; details: read-out: Kinetic_solubility
[16] = Protein binding in human plasma assessed as free fraction at 400 uM incubated for 4 hrs by equilibrium dialysis method based LC-MS/MS analysis; type: ADME, cell-free
[17] = Protein binding in mouse plasma assessed as free fraction at 400 uM incubated for 4 hrs by equilibrium dialysis method based LC-MS/MS analysis; type: ADME, cell-free
[18] = Toxicity against Balb/c mouse xenografted with human SUM149PT cells assessed as reduction in body weight at 20 mg/kg, po administered once daily via gavage for 2 days and measured after second dose; type: organism-based; set-up: scale not given: the % may be the effect or the level left; details: in vivo, 48 h, time 2 day

Row | SMILES | IC50 [1] [nM] | IC50 [14] [nM] | IC50 [2] [nM] | further results
1 | CC#CC(=O)N1CCc2c(ncnc2N2CC[C@@H](Nc3ncc(Cl)c(OC)n3)C2)C1 | 235 | – | 226 | t1/2 [3]: 315.5 min; t1/2 [4]: 324.4 min; t1/2 [5]: 379.4 min; clearance [6]: 179 mL/min/kg; Vd [7]: 0.35 L/kg; AUC(0-inf) [8]: 93.8 ng·h/mL; half-life [9]: 15 min; Cmax [10]: 101 ng/mL; AUC(0-inf) [11]: 54.7 ng·h/mL; bioavailability [12]: 11.2%
2 | C=CC(=O)N1CCc2c(nc(N3CCN(C)C(=O)C3)nc2N2CC[C@@H](Nc3ncc(Cl)c(OC)n3)C2)C1 | – | – | 276 | –
3 | C=CC(=O)N1CC2(CCC(C(=O)N3CC[C@@H](Nc4ncc(Cl)c(OC)n4)C3)CC2)C1 | 756 | 669 | – | –
4 | C=CC(=O)[C@H]1CC[C@H](C(=O)N2CC[C@@H](Nc3ncc(Cl)c(OC)n3)C2)CC1 | 2740 | 3740 | – | –
5 | C=CC(=O)N1CCc2c(nc(N3CCCC3=O)nc2N2CC[C@@H](Nc3ncc(Cl)c(OC)n3)C2)C1 | 198 | – | 457 | –
6 | C=CC(=O)NC12CC(C(=O)N3CC[C@@H](Nc4ncc(Cl)c(OC)n4)C3)(C1)C2 | 2750 | 2410 | – | –
7 | C=CC(=O)N1CCC(C(=O)N2CC[C@@H](Nc3ncc(Cl)c(OC)n3)C2)CC1 | 1760 | 2270 | – | –
8 | C=CC(=O)N1Cc2ncnc(N3CC[C@@H](Nc4ncc(Cl)c(OC)n4)C3)c2C1 | 343 | – | 509 | –

The remaining compounds from weak to strong by IC50 [1], led by results:

Row | IC50 [1] [nM] | IC50 [14] [nM] | SMILES | IC50 [2] [nM] | further results
9 | 165 | – | C=CC(=O)N1CCc2c(nc(N3CCOCC3)nc2N2CC[C@@H](Nc3ncc(Cl)c(OC)n3)C2)C1 | 532 | –
10 | 107 | – | C=CC(=O)N1CCc2c(ccnc2N2CC[C@@H](Nc3ncc(Cl)c(OC)n3)C2)C1 | 317 | –
11 | 95.4 | – | C=CC(=O)N1CCc2c(nc(OC)nc2N2CC[C@@H](Nc3ncc(Cl)c(OC)n3)C2)C1 | 336 | –
12 | 76.1 | – | C=CC(=O)N1Cc2ccnc(N3CC[C@@H](Nc4ncc(Cl)c(OC)n4)C3)c2C1 | – | –
13 | 74.8 | – | C=CC(=O)N1CCc2c(nc(C)nc2N2CC[C@@H](Nc3ncc(Cl)c(OC)n3)C2)C1 | 155 | –
14 | 9.22 | 6.9 | C=CC(=O)Nc1ccc(C(=O)N2CC[C@@H](Nc3ncc(Cl)c(OC)n3)C2)cc1 | 2.64 | Papp at 2 h, 2 µM [13]: 2.87 ×10⁻⁶ cm/s; t1/2 [3]: 39.7 min; t1/2 [4]: 40.2 min; t1/2 [5]: 43 min; Vd [7]: 0.66 L/kg; solubility kinetic at 24 h [15]: 48.2 µg/mL (≈ 120 µM); fraction unbound at 4 h, 400 µM [16]: 0.003; fraction unbound at 4 h, 400 µM [17]: 0.038; Activity [18]: 10%
